In patent US20230093861A1, “RAPAMYCIN ANALOGS AS MTOR INHIBITORS” (Revolution Medicines, Inc., priority 2017, published 2023):
Where two headings read alike, the source gives them in different places.

Legend:
P-P70S6K (T389) = assay: Cell based AlphaLISA assay, inhibition of P-P70S6K (T389) (mTORC1 substrate phosphorylation) in MDA-MB-468 cells; conditions: Homo sapiens, 4 h, AlphaLISA, two to four hours at 37° C., read-out: pIC50 for Inhibition of mTORC1 and mTORC2 Substrate Phosphorylation, P-P70S6K-(T389) (converted)
In short: (§1)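 After treatment, cells were lysed in the kit's buffer once assay medium was withdrawn. Duplicate Alpha measurements tracked each phospho-epitope, and dose-response data were fitted to IC50 following normalization to control wells.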

P-4E-BP1 (T37/46) = assay: Cell based AlphaLISA assay, inhibition of P-4E-BP1 (T37/46) (mTORC1 substrate phosphorylation) in MDA-MB-468 cells; conditions: Homo sapiens, AlphaLISA, two to four hours at 37° C., read-out: pIC50 for Inhibition of mTORC1 and mTORC2 Substrate Phosphorylation, P-4E-BP1-(T37/46) (converted)
In short: as §1

P-Akt (S473) = assay: Cell based AlphaLISA assay, inhibition of P-Akt (S473) (mTORC2 substrate phosphorylation) in MDA-MB-468 cells; conditions: Homo sapiens, AlphaLISA, two to four hours at 37° C., read-out: pIC50 for Inhibition of mTORC1 and mTORC2 Substrate Phosphorylation, p-AKT 1/2/3 -(S473) (converted)
In short: as §1

SMILES	IC50 (P-P70S6K (T389))	IC50 (P-4E-BP1 (T37/46); MDA-MB-468, 4 h)	IC50 (P-Akt (S473); MDA-MB-468, 4 h)	IC50 (P-4E-BP1 (T37/46); 4 h)	IC50 (P-Akt (S473); 4 h)
CCO[C@@H]1C[C@@H]([C@H](C)C[C@@H]2CC[C@H](n3cc(CCCC(=O)NCCOCCOCCOCCC(=O)NCCOCCOCCC(=O)NCCCCn4nc(-c5cc6cc(O)ccc6[nH]5)c5c(N)ncnc54)nn3)[C@H](OC)C2)OC(=O)[C@@H]2CCCCN2C(=O)C(=O)[C@]2(O)O[C@@H](CC[C@H]2C)C[C@H](OC)/C(C)=C/C=C/C=C/[C@@H](C)C[C@@H](C)C(=O)[C@H](OC)[C@H](O)/C(C)=C/[C@H]1C [Example 166]	> 1000 nM	> 1000 nM	> 1000 nM		
CO[C@H]1C[C@@H]2CC[C@@H](C)[C@@](O)(O2)C(=O)C(=O)N2CCCC[C@H]2C(=O)O[C@H]([C@H](C)C[C@@H]2CC[C@@H](O)[C@H](OC)C2)C[C@@H](O)[C@H](C)/C=C(\C)[C@@H](O)[C@@H](OC)C(=NOCc2cn(-c3cnc(N4CCN(c5ncc(C(=O)NCCOCCOCCC(=O)NCCCCn6nc(-c7ccc8oc(N)nc8c7)c7c(N)ncnc76)cn5)CC4)nc3)nn2)[C@H](C)C[C@H](C)/C=C/C=C/C=C/1C [Example 192]	< 1 nM	3.16 to 31.6 nM	> 1000 nM		
CO/N=C1/C[C@@H]([C@H](C)C[C@@H]2CC[C@H](n3cc(CCCC(=O)NCCOCCOCCOCCC(=O)NCCOCCOCCC(=O)NCCCCn4nc(-c5ccc6oc(N)nc6c5)c5c(N)ncnc54)nn3)[C@H](OC)C2)OC(=O)[C@@H]2CCCCN2C(=O)C(=O)[C@]2(O)O[C@@H](CC[C@H]2C)C[C@H](OC)/C(C)=C/C=C/C=C/[C@@H](C)C[C@@H](C)C(=O)[C@H](OC)[C@H](O)/C(C)=C/[C@H]1C [Example 169]	10 to 1000 nM	> 1000 nM	> 1000 nM		
CO[C@H]1C[C@@H]2CC[C@@H](C)[C@@](O)(O2)C(=O)C(=O)N2CCCC[C@H]2C(=O)O[C@H]([C@H](C)C[C@@H]2CC[C@@H](OCCCCc3cn(CCOCCOCCOCCOCCOCCOCCOCCOCCC(=O)N4CCc5cc(Cn6nc(-c7ccc8oc(N)nc8c7)c7c(N)ncnc76)ccc5C4)nn3)[C@H](OC)C2)CC(=O)[C@H](C)/C=C(\C)[C@@H](O)[C@@H](OC)C(=O)[C@H](C)C[C@H](C)/C=C/C=C/C=C/1C [Example 88]	< 1 nM			< 3.16 nM	3.16 to 31.6 nM
CO[C@H]1C[C@@H]2CC[C@@H](C)[C@@](O)(O2)C(=O)C(=O)N2CCCC[C@H]2C(=O)O[C@H]([C@H](C)C[C@@H]2CC[C@@H](O)[C@H](OC)C2)C[C@@H](O)[C@H](C)/C=C(\C)[C@@H](O)[C@@H](OC)C(=NOCc2cn(-c3cnc(N4CCN(c5ncc(C(=O)NCCOCCC(=O)NCCCCn6nc(-c7ccc8oc(N)nc8c7)c7c(N)ncnc76)cn5)CC4)nc3)nn2)[C@H](C)C[C@H](C)/C=C/C=C/C=C/1C [Example 191]	< 1 nM	< 3.16 nM	> 1000 nM		
CO[C@H]1C[C@@H]2CC[C@@H](C)[C@@](O)(O2)C(=O)C(=O)N2CCCC[C@H]2C(=O)O[C@H]([C@H](C)C[C@@H]2CC[C@@H](OCCCCc3cn(CCOCCOCCOCCOCCOCCOCCC(=O)N4CCN(c5ccc(-n6c(=O)ccc7cnc8ccc(-c9cnc%10ccccc%10c9)cc8c76)cc5C(F)(F)F)CC4)nn3)[C@H](OC)C2)CC(=O)[C@H](C)/C=C(\C)[C@@H](O)[C@@H](OC)C(=O)[C@H](C)C[C@H](C)/C=C/C=C/C=C/1C [Example 67]	< 1 nM	< 3.16 nM	< 3.16 nM		
CO[C@H]1C[C@@H]2CC[C@@H](C)[C@@](O)(O2)C(=O)C(=O)N2CCCC[C@H]2C(=O)O[C@H]([C@H](C)C[C@@H]2CC[C@H](n3cc(COC(=O)NCCOCCOCCOCCC(=O)NCCOCCOCCOCCC(=O)NCCCCn4nc(-c5ccc6oc(N)nc6c5)c5c(N)ncnc54)nn3)[C@H](OC)C2)C[C@@H](OC)[C@H](C)/C=C(\C)[C@@H](O)[C@@H](OC)C(=O)[C@H](C)C[C@H](C)/C=C/C=C/C=C/1C [Example 145]	1 to 10 nM	31.6 to 1000 nM	> 1000 nM		
COc1cccc2cc(-c3nc([C@H]4CC[C@H](C(=O)NCCOCCOCCOCCOCCOCCOCCn5cc(CCCCO[C@@H]6CC[C@@H](C[C@@H](C)[C@@H]7CC(=O)[C@H](C)/C=C(\C)[C@@H](O)[C@@H](OC)C(=O)[C@H](C)C[C@H](C)/C=C/C=C/C=C(\C)[C@@H](OC)C[C@@H]8CC[C@@H](C)[C@@](O)(O8)C(=O)C(=O)N8CCCC[C@H]8C(=O)O7)C[C@H]6OC)nn5)CC4)n4ncnc(N)c34)[nH]c12 [Example 106]	< 1 nM	< 3.16 nM	3.16 to 31.6 nM		
CO[C@H]1C[C@@H]2CC[C@@H](C)[C@@](O)(O2)C(=O)C(=O)N2CCCC[C@H]2C(=O)O[C@H]([C@H](C)C[C@@H]2CC[C@@H](OCCOCc3cn(CCOCCOCCOCCOCCOCCOCCOCCOCCC(=O)NCCCCn4nc(-c5cc6cc(O)ccc6[nH]5)c5c(N)ncnc54)nn3)[C@H](OC)C2)CC(=O)[C@H](C)/C=C(\C)[C@@H](O)[C@@H](OC)C(=O)[C@H](C)C[C@H](C)/C=C/C=C/C=C/1C [Example 53]	< 1 nM			< 3.16 nM	3.16 to 31.6 nM
CO[C@H]1C[C@@H]2CC[C@@H](C)[C@@](O)(O2)C(=O)C(=O)N2CCCC[C@H]2C(=O)O[C@H]([C@H](C)C[C@@H]2CC[C@@H](OCCCCc3cn(CCOCCOCCOCCOCCOCCOCCC(=O)NCCCCn4nc(-c5cnc6[nH]ccc6c5)c5c(N)ncnc54)nn3)[C@H](OC)C2)CC(=O)[C@H](C)/C=C(\C)[C@@H](O)[C@@H](OC)C(=O)[C@H](C)C[C@H](C)/C=C/C=C/C=C/1C [Example 68]	< 1 nM			3.16 to 31.6 nM	31.6 to 1000 nM
CO[C@H]1C[C@@H]2CC[C@@H](C)[C@@](O)(O2)C(=O)C(=O)N2CCCC[C@H]2C(=O)O[C@H]([C@H](C)C[C@@H]2CC[C@H](n3cc(COC(=O)NCCOCCOCCOCCC(=O)NCCOCCOCCC(=O)NCCCCn4nc(-c5ccc6oc(N)nc6c5)c5c(N)ncnc54)nn3)[C@H](OC)C2)C/C(=N/OC(C)(C)C)[C@H](C)/C=C(\C)[C@@H](O)[C@@H](OC)C(=O)[C@H](C)C[C@H](C)/C=C/C=C/C=C/1C [Example 158]	> 1000 nM	> 1000 nM	> 1000 nM		
CO[C@H]1C[C@@H]2CC[C@@H](C)[C@@](O)(O2)C(=O)C(=O)N2CCCC[C@H]2C(=O)O[C@H]([C@H](C)C[C@@H]2CC[C@H](n3cc(-c4cnc(N5CCN(c6ncc(C(=O)NCCOCCOCCC(=O)NCCCCn7nc(-c8ccc9oc(N)nc9c8)c8c(N)ncnc87)cn6)CC5)nc4)nn3)[C@H](OC)C2)CC(=O)[C@H](C)/C=C(\C)[C@@H](O)[C@@H](OC)C(=O)[C@H](C)C[C@H](C)/C=C/C=C/C=C/1C [Example 111]	< 1 nM	31.6 to 1000 nM	31.6 to 1000 nM		
CO[C@H]1C[C@@H]2CC[C@@H](C)[C@@](O)(O2)C(=O)C(=O)N2CCCC[C@H]2C(=O)O[C@H]([C@H](C)C[C@@H]2CC[C@@H](OCCCCc3cn(CCOCCOCCOCCC(=O)NCCOCCOCCOCCC(=O)NCCCCn4nc(-c5ccc6oc(N)nc6c5)c5c(N)ncnc54)nn3)[C@H](OC)C2)CC(=O)[C@H](C)/C=C(\C)[C@@H](O)[C@@H](OC)C(=O)[C@H](C)C[C@H](C)/C=C/C=C/C=C/1C [Example 198]	< 1 nM	< 3.16 nM	3.16 to 31.6 nM		
CO[C@H]1C[C@@H]2CC[C@@H](C)[C@@](O)(O2)C(=O)C(=O)N2CCCC[C@H]2C(=O)O[C@H]([C@H](C)C[C@@H]2CC[C@@H](OCCCCc3cn(CCOCCOCCOCCOCCOCCOCCC(=O)NCCCCn4ncc5c(N)ncnc54)nn3)[C@H](OC)C2)CC(=O)[C@H](C)/C=C(\C)[C@@H](O)[C@@H](OC)C(=O)[C@H](C)C[C@H](C)/C=C/C=C/C=C/1C [Example 6]	< 1 nM	> 1000 nM	> 1000 nM		
CO[C@H]1C[C@@H]2CC[C@@H](C)[C@@](O)(O2)C(=O)C(=O)N2CCCC[C@H]2C(=O)O[C@H]([C@H](C)C[C@@H]2CC[C@H](n3nncc3-c3cccc(-c4cnc(N5CCN(Cc6cn(CCOCCOCCOCCOCCC(=O)NCCCCn7nc(-c8ccc9oc(N)nc9c8)c8c(N)ncnc87)nn6)CC5)nc4)c3)[C@H](OC)C2)CC(=O)[C@H](C)/C=C(\C)[C@@H](O)[C@@H](OC)C(=O)[C@H](C)C[C@H](C)/C=C/C=C/C=C/1C [Example 30]	< 1 nM	< 3.16 nM	3.16 to 31.6 nM		
CO[C@H]1C[C@@H]2CC[C@@H](C)[C@@](O)(O2)C(=O)C(=O)N2CCCC[C@H]2C(=O)O[C@H]([C@H](C)C[C@@H]2CC[C@@H](OCCCCc3cn(CCOCCOCCOCCNC(=O)CCCCC(=O)NCCCCn4nc(-c5ccc6oc(N)nc6c5)c5c(N)ncnc54)nn3)[C@H](OC)C2)CC(=O)[C@H](C)/C=C(\C)[C@@H](O)[C@@H](OC)C(=O)[C@H](C)C[C@H](C)/C=C/C=C/C=C/1C [Example 102]	< 1 nM	3.16 to 31.6 nM	3.16 to 31.6 nM		
CO/N=C1/C[C@@H]([C@H](C)C[C@@H]2CC[C@H](n3cc(COC(=O)NCCOCCOCCOCCC(=O)NCCOCCOCCOCCC(=O)NCCCCn4nc(-c5ccc6oc(N)nc6c5)c5c(N)ncnc54)nn3)[C@H](OC)C2)OC(=O)[C@@H]2CCCCN2C(=O)C(=O)[C@]2(O)O[C@@H](CC[C@H]2C)C[C@H](OC)/C(C)=C/C=C/C=C/[C@@H](C)C[C@@H](C)C(=O)[C@H](OC)[C@H](O)/C(C)=C/[C@H]1C [Example 153]	1 to 10 nM	31.6 to 1000 nM	> 1000 nM		
